Results from US20250129078A1, “ERBB2 INHIBITORS” (Cogent Biosciences, Inc., priority 2023, published 2025).
Where a name gives a salt, the structure may show the parent alone.

Molecular target: EGFR WT (Homo sapiens (Human), UniProt P00533)
Test: ErbB enzyme assay (CisBio HTRF-KinEASE-TK), EGFR WT
Assay type: biochemical
Conditions: ATP at Km (25 μM), 1 h incubation
Procedure: In vitro enzyme assays based on CisBio HTRF-KinEASE-TK technology were used to determine compound potencies. […]. Compounds were prepared as a three-fold serial dilution in DMSO and added to the assay to give the appropriate final concentration. After a 1 h incubation at ambient temperature, the reaction was quenched by adding 10 μL of 62.5 nM Sa-XL665 and 0.25×TK-Ab-Cryptate in HTRF detection buffer (all from CisBio, part of cat #62TKOPEC). After another 1 h incubation at ambient temperature, the extent of substrate phosphorylation was determined using a PerkinElmer EnVision multimode plate reader via time-resolved fluorescence dual wavelength detection. The percent of control (POC) was calculated using the ratio of emission at […] to the emission at 620 nm. One hundred POC was determined using DMSO only controls (no test compounds present) and zero POC was determined using pre-quenched controls reactions. A 4-parameter logistic equation was fit to the POC values as a function of the test compound concentration and the IC50 value was determined as the point where the curve crossed 50 POC.

EGFR WT, sequence (P00533 25-1210): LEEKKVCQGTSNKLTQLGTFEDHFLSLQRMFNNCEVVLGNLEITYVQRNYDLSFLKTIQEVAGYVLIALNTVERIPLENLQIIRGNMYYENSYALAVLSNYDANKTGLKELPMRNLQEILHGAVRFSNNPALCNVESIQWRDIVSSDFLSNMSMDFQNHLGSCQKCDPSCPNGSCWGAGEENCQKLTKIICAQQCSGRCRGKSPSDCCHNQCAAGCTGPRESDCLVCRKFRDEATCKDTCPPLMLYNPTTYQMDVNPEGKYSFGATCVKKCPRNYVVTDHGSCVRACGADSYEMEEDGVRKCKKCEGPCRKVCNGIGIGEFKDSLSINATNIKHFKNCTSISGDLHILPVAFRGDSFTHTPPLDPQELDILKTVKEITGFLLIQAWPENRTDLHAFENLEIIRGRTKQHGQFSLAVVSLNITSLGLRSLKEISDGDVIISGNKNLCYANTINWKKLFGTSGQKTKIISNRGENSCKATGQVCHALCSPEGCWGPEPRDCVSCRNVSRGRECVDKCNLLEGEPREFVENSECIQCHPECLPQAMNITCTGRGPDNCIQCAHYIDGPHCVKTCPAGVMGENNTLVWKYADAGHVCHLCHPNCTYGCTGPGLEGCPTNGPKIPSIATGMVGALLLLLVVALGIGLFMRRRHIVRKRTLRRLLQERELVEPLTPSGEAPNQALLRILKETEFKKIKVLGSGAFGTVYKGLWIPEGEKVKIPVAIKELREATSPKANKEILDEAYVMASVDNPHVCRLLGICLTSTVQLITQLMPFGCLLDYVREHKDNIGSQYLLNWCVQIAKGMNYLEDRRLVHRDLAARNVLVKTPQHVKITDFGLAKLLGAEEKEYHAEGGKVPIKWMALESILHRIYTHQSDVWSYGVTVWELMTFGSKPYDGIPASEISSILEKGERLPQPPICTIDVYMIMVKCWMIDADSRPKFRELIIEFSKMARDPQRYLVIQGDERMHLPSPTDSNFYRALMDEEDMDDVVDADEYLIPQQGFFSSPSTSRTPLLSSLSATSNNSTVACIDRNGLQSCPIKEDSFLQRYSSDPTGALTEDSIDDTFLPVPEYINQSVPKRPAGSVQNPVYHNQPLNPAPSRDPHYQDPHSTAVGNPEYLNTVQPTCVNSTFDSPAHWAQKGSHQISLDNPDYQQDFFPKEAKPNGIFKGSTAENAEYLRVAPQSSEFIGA

Going from `C=C(F)C(=O)N1CCN(c2ncc3ncnc(Nc4ccc(Oc5ccc6c(c5)nnn6C)c(C)c4)c3n2)C[C@H]1CF` (single isomer, unassigned) [Compound 219] to `C=CC(=O)N1CCN(c2ncc3ncnc(Nc4ccc(Oc5ccc6c(c5)nnn6C)c(C)c4)c3n2)C[C@@H]1CF` (single isomer, unassigned) [Compound 199], the IC50 falls from no less than 1 µM to less than 0.05 µM.

Compared with `C=C(COC)C(=O)N1CCN(c2ncc3ncnc(Nc4ccc(Oc5ccc6c(c5)nnn6C)c(C)c4)c3n2)CC1` [Compound 54, 2-(methoxymethyl)-1-(4-(8-((3-methyl-4-((1-methyl-1H-benzo[d][1,2,3]triazol-5-yl)oxy)phenyl)amino)pyrimido [5,4-d]pyrimidin-2-yl)piperazin-1-yl) prop-2-en-1-one], `C=CC(=O)N1CCN(c2ncc3ncnc(Nc4ccc(Oc5ccc6c(c5)nnn6C)c(C)c4)c3n2)C[C@@H]1COC` [Compound 116, (R)-1-(2-(methoxymethyl)-4-(8-((3-methyl-4-((1-methyl-1H-benzo[d][1,2,3]triazol-5-yl)oxy)phenyl)amino)pyrimido[5,4-d]pyrimidin-2-y1)piperazin-1-yl)prop-2-en-1-one] is lower in IC50: no less than 1 µM for the first, 0.1 to 0.5 µM for the second.

Compared with `C=CC(=O)N1CCN(c2ncc3ncnc(Nc4ccc(Oc5ccc6c(c5)nnn6C)c(F)c4F)c3n2)CC1` [Compound 44, 1-(4-(8-((2,3-difluoro-4-((1-methyl-1H-benzo[d][1,2,3]triazol-5-yl)oxy)phenyl)amino)pyrimido[5,4-d]pyrimidin-2-yl)piperazin-1-yl)prop-2-en-1-one], `C=CC(=O)N1CCN(c2ncc3ncnc(Nc4ccc(Oc5ccc6c(c5)nnn6C)c(Cl)c4F)c3n2)CC1` [Compound 220, 1-(4-(8-((3-chloro-2-fluoro-4-((1-methyl-1H-benzo[d][1,2,3]triazol-5-yl)oxy)phenyl)amino)pyrimido[5,4-d]pyrimidin-2-yl)piperazin-1-yl)prop-2-en-1-one] is lower in IC50: 0.05 to 0.1 µM for the first, less than 0.05 µM for the second.

Compared with `C=CC(=O)N[C@H]1CN(c2ccc3ncnc(Nc4ccc(Oc5ccc6c(c5)nnn6C)c(C)c4F)c3n2)C[C@@H]1F` [Compound 300, N-((3S,4S)-4-fluoro-1-(4-((2-fluoro-3-methyl-4-((1-methyl-1H-benzo[d][1,2,3]triazol-5-yl)oxy)phenyl)amino)pyrido[3,2-d]pyrimidin-6-yl)pyrrolidin-3-yl)acrylamide], `C=CC(=O)N[C@H]1CN(c2ccc3ncnc(Nc4ccc(Oc5ccc6c(c5)nnn6C)c(C)c4F)c3n2)C[C@H]1F` [Compound 301, N-((3S,4R)-4-fluoro-1-(4-((2-fluoro-3-methyl-4-((1-methyl-1H-benzo[d][1,2,3]triazol-5-yl)oxy)phenyl)amino)pyrido[3,2-d]pyrimidin-6-yl)pyrrolidin-3-yl)acrylamide] is higher in IC50: 0.1 to 0.5 µM for the first, 0.5 to 1 µM for the second.

Compared with `C=CC(=O)N1CCN(c2ncc3ncnc(Nc4ccc(Oc5cc6nnn(C)c6cc5F)c(C)c4)c3n2)CC1` [Compound 190, 1-(4-(8-((4-((6-fluoro-1-methyl-1H-benzo[d][1,2,3]triazol-5-yl)oxy)-3-methylphenyl)amino)pyrimido[5,4-d]pyrimidin-2-yl)piperazin-1-yl)prop-2-en-1-one], `C=CC(=O)N1CCN(c2ncc3ncnc(Nc4ccc(Oc5ccc6c(c5)nnn6C)c(C)c4F)c3n2)CC1` [Compound 7, 1-(4-(8-((2-fluoro-3-methyl-4-((1-methyl-1H-benzo[d][1,2,3]triazol-5-yl)oxy)phenyl)amino)pyrimido [5,4-d]pyrimidin-2-y1)piperazin-1-yl)prop-2-en-1-one] is lower in IC50: 0.1 to 0.5 µM for the first, less than 0.05 µM for the second. The second is the more potent here.

Compared with `Cc1cc(Nc2ncnc3ccc(N4CC5CC(C4)N5C(=O)/C=C/C(F)F)nc23)ccc1Oc1ccc2c(c1)nnn2C` [Compound 359, (E)-4,4-difluoro-1-(3-(4-((3-methyl-4-((1-methyl-1H-benzo[d][1,2,3]triazol-5-yl)oxy)phenyl)amino)pyrido[3,2-d]pyrimidin-6-yl)-3,6-diazabicyclo[3.1.1]heptan-6-yl)but-2-en-1-one], `Cc1cc(Nc2ncnc3ccc(N4CC5CCC(C4)N5C(=O)/C=C/C(F)F)nc23)ccc1Oc1ccc2c(c1)nnn2C` [Compound 358, (E)-4,4-difluoro-1-(3-(4-((3-methyl-4-((1-methyl-1H-benzo[d][1,2,3]triazol-5-yl)oxy)phenyl)amino)pyrido[3,2-d]pyrimidin-6-yl)-3,8-diazabicyclo[3.2.1]octan-8-yl)but-2-en-1-one] is lower in IC50: 0.1 to 0.5 µM for the first, 0.05 to 0.1 µM for the second. The second is the more potent here.

First: C=CC(=O)N1CCC(Oc2ncc3ncnc(Nc4ccc(Oc5ccn6ncnc6c5)c(C)c4)c3n2)CC1 [Compound 376, 1-(4-((8-((4-([1,2,4]triazolo[1,5-a]pyridin-7-yloxy)-3-methylphenyl)amino)pyrimido[5,4-d]pyrimidin-2-yl)oxy)piperidin-1-yl)prop-2-en-1-one]
Second: C=CC(=O)N1CCC(Oc2ncc3ncnc(Nc4ccc(Oc5cc(F)c6c(c5)ncn6C)c(C)c4)c3n2)CC1 [Compound 381, 1-(4-((8-((4-((7-fluoro-1-methyl-1H-benzo[d]imidazol-5-yl)oxy)-3-methylphenyl)amino)pyrimido[5,4-d]pyrimidin-2-yl)oxy)piperidin-1-yl)prop-2-en-1-one]
The IC50 of the first is higher: 0.1 to 0.5 µM for the first, less than 0.05 µM for the second. The second is the more potent here.

First: C=CC(=O)N1CCN(c2ncc3ncnc(Nc4ccc(Oc5ccc6c(c5)nnn6C)c(C)c4)c3n2)C[C@H]1C(C)C [Compound 121, (R)-1-(2-isopropyl-4-(8-((3-methyl-4-((1-methyl-1H-benzo[d][1,2,3]triazol-5-yl)oxy)phenyl)amino)pyrimido[5,4-d]pyrimidin-2-yl)piperazin-1-yl)prop-2-en-1-one]
Second: C=CC(=O)N1CCN(c2ccc3ncnc(Nc4ccc(Oc5ccc6c(c5)nnn6C)c(C)c4)c3n2)CC12CC2 [Compound 74, 1-(7-(4-((3-methyl-4-((1-methyl-1H-benzo[d][1,2,3]triazol-5-yl)oxy)phenyl)amino)pyrido[3,2-d]pyrimidin-6-yl)-4,7-diazaspiro[2.5]octan-4-yl)prop-2-en-1-one]
The IC50 of the first is higher: no less than 1 µM for the first, less than 0.05 µM for the second.

`C=CC(=O)N[C@@H]1CCCN(c2ccc3ncnc(Nc4ccc(Oc5ccc6c(c5)nnn6C)c(C)c4F)c3n2)CC1` [Compound 283, (R)-N-(1-(4-((2-fluoro-3-methyl-4-((1-methyl-1H-benzo[d][1,2,3]triazol-5-yl)oxy)phenyl)amino)pyrido[3,2-d]pyrimidin-6-yl)azepan-4-yl)acrylamide] and `C=CC(=O)N[C@H]1CCCN(c2ncc3ncnc(Nc4ccc(Oc5ccc6c(c5)nnn6C)c(C)c4F)c3n2)CC1` [Compound 168, (S)-N-(1-(8-((2-fluoro-3-methyl-4-((1-methyl-1H-benzo[d][1,2,3]triazol-5-yl)oxy)phenyl)amino)pyrimido[5,4-d]pyrimidin-2-yl)azepan-4-yl)acrylamide] cannot be ordered by IC50: no less than 1 µM for the first, 0.5 to 1 µM for the second.

`C=C(F)C(=O)N1C2C=C(c3ccc4ncnc(Nc5ccc(Oc6ccc7c(c6)nnn7C)c(C)c5)c4n3)CC1CCC2` (stereo not shown) [Compound 406, 2-fluoro-1-(3-(4-((3-methyl-4-((1-methyl-1H-benzo[d][1,2,3]triazol-5-yl)oxy)phenyl)amino)pyrido[3,2-d]pyrimidin-6-yl)-9-azabicyclo[3.3.1]non-2-en-9-yl)prop-2-en-1-one trifluoroacetate] and `C=C(F)C(=O)N1C2C=C(c3ccc4ncnc(Nc5ccc(Oc6ccc7c(c6)nnn7C)c(C)c5)c4n3)CC1CC2` (stereo not shown) [Compound 411, 2-fluoro-1-(3-(4-((3-methyl-4-((1-methyl-1H-benzo[d][1,2,3]triazol-5-yl)oxy)phenyl)amino)pyrido[3,2-d]pyrimidin-6-yl)-8-azabicyclo[3.2.1]oct-2-en-8-yl)prop-2-en-1-one trifluoroacetate] cannot be ordered by IC50: no less than 1 µM for the first, no less than 1 µM for the second.

First: C=CC(=O)N1CC[C@H](Oc2ncc3ncnc(Nc4ccc(Oc5cc(F)c6c(c5)ncn6C)c(C)c4)c3n2)C1 [Compound 389, (S)-1-(3-((8-((4-((7-fluoro-1-methyl-1H-benzo[d]imidazol-5-yl)oxy)-3-methylphenyl)amino)pyrimido[5,4-d]pyrimidin-2-yl)oxy)pyrrolidin-1-yl)prop-2-en-1-one]
Second: C=CC(=O)N1CCN(c2ncc3ncnc(Nc4ccc(Oc5cc(F)c6c(c5)ncn6C)c(C)c4)c3n2)CC[C@@H]1C [Compound 179, (S)-1-(4-(8-((4-((7-fluoro-1-methyl-1H-benzo[d]imidazol-5-yl)oxy)-3-methylphenyl)amino)pyrimido[5,4-d]pyrimidin-2-y1)-7-methyl-1,4-diazepan-1-yl)prop-2-en-1-one]
The IC50 of the first is lower: less than 0.05 µM for the first, 0.1 to 0.5 µM for the second. The first is the more potent here.

`C=CC(=O)N[C@]1(C)CCN(c2ncc3ncnc(Nc4ccc(Oc5ccc6c(c5)nnn6C)c(C)c4F)c3n2)C1` [Compound 161, (R)-N-(1-(8-((2-fluoro-3-methyl-4-((1-methyl-1H-benzo[d][1,2,3]triazol-5-yl)oxy)phenyl)amino)pyrimido[5,4-d]pyrimidin-2-yl)-3-methylpyrrolidin-3-yl)acrylamide] and `C=CC(=O)N1CC2CCC(C1)N2c1ccc2ncnc(Nc3ccc(Oc4ccc5c(c4)nnn5C)c(C)c3)c2n1` [Compound 71, 1-(8-(4-((3-methyl-4-((1-methyl-1H-benzo[d][1,2,3]triazol-5-yl)oxy)phenyl)amino)pyrido[3,2-d]pyrimidin-6-yl)-3,8-diazabicyclo[3.2.1]octan-3-yl)prop-2-en-1-one] cannot be ordered by IC50: less than 0.05 µM for the first, less than 0.05 µM for the second.

For `C=CC(=O)N1C2C=C(c3ccc4ncnc(Nc5ccc(Oc6ccc7c(c6)nnn7C)c(C)c5)c4n3)CC1COC2` (stereo not shown) [Compound 408, 1-(7-(4-((3-methyl-4-((1-methyl-1H-benzo[d][1,2,3]triazol-5-yl)oxy)phenyl)amino)pyrido[3,2-d]pyrimidin-6-yl)-3-oxa-9-azabicyclo[3.3.1]non-6-en-9-yl)prop-2-en-1-one trifluoroacetate], the IC50 was 0.1 to 0.5 µM.
